Assay results from PubChem BioAssay AID248 (DTP/NCI, 2004).
Values joined by “and” are separate entries in the source; they are usually repeats but may differ in a detail not shown here. Identical values can stand only once. Toxic doses and inconclusive results are not listed. Cut-off read from the data, not from the text of the source: active = T/C of 150% or more; inactive = T/C below 125%.

Test system: L1210 leukemia ip in BDF1 mice, survival T/C
Experiment: NCI In Vivo Anticancer Drug Screen. Data for tumor model L1210 Leukemia (intraperitoneal) in B6D2F1 (BDF1) mice
Conditions: endpoint: mean survival time, higher = longer survival
How it was run: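 Each compound was tested against a transplantable tumor grown in mice. The endpoint was survival, with treated animals benchmarked against vehicle controls as a simple ratio.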

[1] = dose: 50.0 mg/kg/injection, schedule: Q01DX009 (ip), vehicle: Klucel (hydroxypropylcellulose) (HPC)
[2] = dose: 100.0 mg/kg/injection, schedule: Q01DX009 (ip), vehicle: Klucel (hydroxypropylcellulose) (HPC)
[3] = dose: 200.0 mg/kg/injection, schedule: Q01DX009 (ip), vehicle: Klucel (hydroxypropylcellulose) (HPC)
[4] = dose: 400.0 mg/kg/injection, schedule: Q01DX009 (ip), vehicle: Klucel (hydroxypropylcellulose) (HPC)
[5] = dose: 100.0 mg/kg/injection, schedule: Q01DX001 (ip), vehicle: saline
[6] = dose: 100.0 mg/kg/injection, schedule: Q04DX003 (ip), vehicle: saline
[7] = dose: 200.0 mg/kg/injection, schedule: Q01DX001 (ip), vehicle: saline
[8] = dose: 200.0 mg/kg/injection, schedule: Q04DX003 (ip), vehicle: saline
[9] = dose: 400.0 mg/kg/injection, schedule: Q01DX001 (ip), vehicle: saline
[10] = dose: 400.0 mg/kg/injection, schedule: Q04DX003 (ip), vehicle: saline
[11] = dose: 100.0 mg/kg/injection, schedule: Q04DX002 (ip), vehicle: Klucel (hydroxypropylcellulose) (HPC)
[12] = dose: 200.0 mg/kg/injection, schedule: Q04DX002 (ip), vehicle: Klucel (hydroxypropylcellulose) (HPC)
[13] = dose: 400.0 mg/kg/injection, schedule: Q04DX002 (ip), vehicle: Klucel (hydroxypropylcellulose) (HPC)

Measured: T/C

NCC(=O)NC1(C(=O)O)C2CC3CC(C2)CC1C3 (configuration not stated)
inactive: dose: 25.0 mg/kg/injection, schedule: Q01DX009 (ip), vehicle: Klucel (hydroxypropylcellulose) (HPC) 96 % of control | [1] 94 % of control | [2] 94 % of control and 96 % of control | [3] 103 % of control | [4] 103 % of control

CC(=O)[C@H]1C[C@@H](CC(=O)O)C1(C)C
inactive: [5] 106 % of control | [6] 96 % of control | [7] 103 % of control | [8] 88 % of control | [9] 97 % of control | [10] 96 % of control

Cc1cc[n+](CCCCCCCCCO)cc1
inactive: [5] 103 % of control

CN(C)c1n[nH]c(N)n1
inactive: dose: 25.0 mg/kg/injection, schedule: Q01DX009 (ip), vehicle: saline 100 % of control | dose: 25.0 mg/kg/injection, schedule: Q04DX002 (ip), vehicle: saline 110 % of control | dose: 50.0 mg/kg/injection, schedule: Q01DX009 (ip), vehicle: saline 98 % of control | dose: 50.0 mg/kg/injection, schedule: Q04DX002 (ip), vehicle: saline 103 % of control | dose: 100.0 mg/kg/injection, schedule: Q01DX009 (ip), vehicle: saline 96 % of control | dose: 200.0 mg/kg/injection, schedule: Q01DX009 (ip), vehicle: saline 108 % of control | dose: 200.0 mg/kg/injection, schedule: Q04DX002 (ip), vehicle: saline with Tween-80 111 % of control | dose: 200.0 mg/kg/injection, schedule: Q04DX002 (ip), vehicle: saline 103 % of control | dose: 400.0 mg/kg/injection, schedule: Q01DX009 (ip), vehicle: saline 116 % of control | dose: 400.0 mg/kg/injection, schedule: Q04DX002 (ip), vehicle: saline with Tween-80 108 % of control

CCCCP(=S)(N1CCCCC1)N1CCCCC1
inactive: [6] 95 % of control | [8] 97 % of control | [10] 86 % of control

CCCCCCCCOC(=O)c1[nH]cnc1/N=N/N(C)CCCC
inactive: dose: 100.0 mg/kg/injection, schedule: Q01DX001 (ip), vehicle: other 107 % of control | dose: 200.0 mg/kg/injection, schedule: Q01DX001 (ip), vehicle: other 107 % of control | dose: 400.0 mg/kg/injection, schedule: Q01DX001 (ip), vehicle: other 102 % of control

Cn1nc(C(N)=O)c2c(N)ncnc21
inactive: dose: 7.5 mg/kg/injection, schedule: Q04DX002 (ip), vehicle: Klucel (hydroxypropylcellulose) (HPC) 96 % of control | dose: 15.0 mg/kg/injection, schedule: Q01DX001 (ip), vehicle: carboxymethylcellulose (CMC) 98 % of control | dose: 15.0 mg/kg/injection, schedule: Q04DX002 (ip), vehicle: Klucel (hydroxypropylcellulose) (HPC) 92 % of control | dose: 30.0 mg/kg/injection, schedule: Q01DX001 (ip), vehicle: carboxymethylcellulose (CMC) 102 % of control | dose: 30.0 mg/kg/injection, schedule: Q04DX002 (ip), vehicle: Klucel (hydroxypropylcellulose) (HPC) 96 % of control

Cc1cccc(Cl)c1NC(=O)Oc1ccccc1C(N)=O
inactive: [2] 92 % of control | [11] 95 % of control | [3] 100 % of control | [12] 100 % of control | [4] 105 % of control | [13] 100 % of control

O=C(NCc1ccc(Cl)cc1)Nc1cccc(F)c1
inactive: dose: 100.0 mg/kg/injection, schedule: Q01DX009 (ip), vehicle: gum acacia 105 % of control | dose: 200.0 mg/kg/injection, schedule: Q01DX009 (ip), vehicle: gum acacia 86 % of control | dose: 400.0 mg/kg/injection, schedule: Q01DX009 (ip), vehicle: gum acacia 98 % of control

CCCCCCOB(OCCCCCC)OCCCCCC
inactive: dose: 50.0 mg/kg/injection, schedule: Q01DX001 (ip), vehicle: carboxymethylcellulose (CMC) 107 % of control | dose: 88.0 mg/kg/injection, schedule: Q01DX001 (ip), vehicle: carboxymethylcellulose (CMC) 97 % of control and 98 % of control | dose: 100.0 mg/kg/injection, schedule: Q01DX001 (ip), vehicle: carboxymethylcellulose (CMC) 102 % of control | dose: 133.0 mg/kg/injection, schedule: Q01DX001 (ip), vehicle: carboxymethylcellulose (CMC) 96 % of control and 103 % of control | dose: 300.0 mg/kg/injection, schedule: Q01DX001 (ip), vehicle: carboxymethylcellulose (CMC) 93 % of control and 94 % of control | dose: 400.0 mg/kg/injection, schedule: Q01DX001 (ip), vehicle: carboxymethylcellulose (CMC) 105 % of control

Cn1c[n+](C)ccc1=O
inactive: dose: 100.0 mg/kg/injection, schedule: Q01DX009 (ip), vehicle: water 87 % of control | dose: 100.0 mg/kg/injection, schedule: Q04DX003 (ip), vehicle: water 111 % of control | dose: 200.0 mg/kg/injection, schedule: Q01DX009 (ip), vehicle: water 104 % of control | dose: 200.0 mg/kg/injection, schedule: Q04DX003 (ip), vehicle: water 106 % of control | dose: 400.0 mg/kg/injection, schedule: Q04DX003 (ip), vehicle: water 111 % of control

O=C1c2cccc([N+](=O)[O-])c2C(=O)N1c1ncn[nH]1
inactive: dose: 44.0 mg/kg/injection, schedule: Q01DX001 (ip), vehicle: saline 93 % of control and 92 % of control | dose: 50.0 mg/kg/injection, schedule: Q01DX001 (ip), vehicle: saline 100 % of control | dose: 66.0 mg/kg/injection, schedule: Q01DX001 (ip), vehicle: saline 93 % of control and 102 % of control | [5] 95 % of control and 92 % of control | dose: 150.0 mg/kg/injection, schedule: Q01DX001 (ip), vehicle: saline 98 % of control | [7] 111 % of control | [9] 91 % of control

O=C(O)c1ccccc1C(=O)Nc1cccc(C(F)(F)F)c1
inactive: [1] 101 % of control | [2] 101 % of control | [3] 99 % of control

CC(O)CC1CC(=O)CCC1=O (configuration not stated)
inactive: dose: 100.0 mg/kg/injection, schedule: Q01DX009 (ip), vehicle: acetone 96 % of control | dose: 200.0 mg/kg/injection, schedule: Q01DX009 (ip), vehicle: acetone 101 % of control | dose: 400.0 mg/kg/injection, schedule: Q01DX009 (ip), vehicle: acetone 102 % of control

Cc1ccc(NC(=O)Nc2ccc(C3=NCCN3)cc2)cc1NC(=O)Nc1ccc(C2=NCCN2)cc1
inactive: dose: 2.25 mg/kg/injection, schedule: Q01DX Z (ip), vehicle: water 105 % of control | dose: 4.5 mg/kg/injection, schedule: Q01DX Z (ip), vehicle: water 102 % of control | dose: 9.0 mg/kg/injection, schedule: Q01DX Z (ip), vehicle: water 92 % of control | dose: 18.0 mg/kg/injection, schedule: Q01DX Z (ip), vehicle: water 100 % of control

COc1ccc(NC(=S)Nc2ccccc2)c(Cl)c1
inactive: [11] 105 % of control | [12] 97 % of control | [13] 108 % of control

N#CC(Nc1ccccc1)C1CC1c1ccccc1 (configuration not stated)
inactive: dose: 12.5 mg/kg/injection, schedule: Q01DX009 (ip), vehicle: saline with Tween-80 94 % of control | dose: 12.5 mg/kg/injection, schedule: Q04DX003 (ip), vehicle: saline with Tween-80 98 % of control | dose: 25.0 mg/kg/injection, schedule: Q01DX009 (ip), vehicle: saline with Tween-80 100 % of control | dose: 25.0 mg/kg/injection, schedule: Q04DX003 (ip), vehicle: saline with Tween-80 102 % of control | dose: 50.0 mg/kg/injection, schedule: Q01DX009 (ip), vehicle: saline with Tween-80 95 % of control | dose: 50.0 mg/kg/injection, schedule: Q04DX003 (ip), vehicle: saline with Tween-80 101 % of control

OC1CCC(CC2CCCCC2)CC1 (configuration not stated)
inactive: dose: 200.0 mg/kg/injection, schedule: Q04DX003 (ip), vehicle: saline with Tween-80 92 % of control | dose: 400.0 mg/kg/injection, schedule: Q04DX003 (ip), vehicle: saline with Tween-80 91 % of control

COc1ccccc1NC(=O)Nc1cc(C)ccc1C
inactive: [2] 88 % of control | dose: 100.0 mg/kg/injection, schedule: Q04DX003 (ip), vehicle: Klucel (hydroxypropylcellulose) (HPC) 90 % of control | [3] 92 % of control | dose: 200.0 mg/kg/injection, schedule: Q04DX003 (ip), vehicle: Klucel (hydroxypropylcellulose) (HPC) 95 % of control | [4] 88 % of control | dose: 400.0 mg/kg/injection, schedule: Q04DX003 (ip), vehicle: Klucel (hydroxypropylcellulose) (HPC) 88 % of control
